Series [1] concerns the target T1, Amine oxidase [flavin-containing] A (Rattus norvegicus, UniProt P21396).
T1 sequence (P21396 whole entry): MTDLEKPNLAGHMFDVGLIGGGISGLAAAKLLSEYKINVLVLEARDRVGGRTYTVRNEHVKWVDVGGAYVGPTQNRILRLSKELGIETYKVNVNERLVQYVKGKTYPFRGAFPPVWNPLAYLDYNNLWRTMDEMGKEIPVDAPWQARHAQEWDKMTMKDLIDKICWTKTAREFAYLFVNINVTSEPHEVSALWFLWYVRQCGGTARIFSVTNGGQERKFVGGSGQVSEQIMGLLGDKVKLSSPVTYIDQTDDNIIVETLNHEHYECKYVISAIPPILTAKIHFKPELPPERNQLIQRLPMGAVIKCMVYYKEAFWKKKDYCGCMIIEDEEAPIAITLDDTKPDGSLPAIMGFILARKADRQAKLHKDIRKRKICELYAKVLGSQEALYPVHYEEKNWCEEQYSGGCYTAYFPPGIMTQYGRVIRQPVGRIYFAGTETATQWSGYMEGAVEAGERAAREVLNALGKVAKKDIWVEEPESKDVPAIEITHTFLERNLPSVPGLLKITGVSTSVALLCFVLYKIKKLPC
Put plainly: Inhibition of MAO-A in rat liver mitochondria using p-tyramine as substrate preincubated for 10 mins followed by substrate addition measured after 30 mins in presence of MAO-B inhibitor deprenyl by Amplex red dye-based fluorescence assay.

For series [2], the target named is T2, Amine oxidase [flavin-containing] B (Rattus norvegicus, UniProt P19643).
T2 sequence (P19643 whole entry): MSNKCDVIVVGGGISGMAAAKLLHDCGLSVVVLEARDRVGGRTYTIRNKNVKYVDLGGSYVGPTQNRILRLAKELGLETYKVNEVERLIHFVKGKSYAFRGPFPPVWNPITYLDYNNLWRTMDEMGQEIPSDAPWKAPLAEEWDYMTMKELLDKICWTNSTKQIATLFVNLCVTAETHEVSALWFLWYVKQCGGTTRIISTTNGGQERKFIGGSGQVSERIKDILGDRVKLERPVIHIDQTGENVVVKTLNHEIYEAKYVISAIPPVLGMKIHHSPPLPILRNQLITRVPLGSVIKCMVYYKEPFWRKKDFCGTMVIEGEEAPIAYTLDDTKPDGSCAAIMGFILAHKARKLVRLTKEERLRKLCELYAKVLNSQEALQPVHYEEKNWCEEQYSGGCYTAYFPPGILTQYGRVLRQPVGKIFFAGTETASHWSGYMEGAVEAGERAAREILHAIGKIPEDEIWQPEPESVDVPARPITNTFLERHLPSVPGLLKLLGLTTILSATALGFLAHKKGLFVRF
Put plainly: Inhibition of MAO-B in rat liver mitochondria using p-tyramine as substrate preincubated for 10 mins followed by substrate addition measured after 30 mins in presence of MAO-A inhibitor clorgyline by Amplex red dye-based fluorescence assay.

The next series is filed under the species Rattus norvegicus. The series can be described thus: Selectivity index, ratio of IC50 for MAO-A in rat liver mitochondria to IC50 for MAO-B in rat liver mitochondria.
Series [3] addresses T1, Amine oxidase [flavin-containing] A. Put plainly: Competitive inhibition of MAO-A in rat liver mitochondria using p-tyramine as substrate up to 0.15 uM preincubated for 10 mins followed by substrate addition measured after 30 mins by Lineweaver-burk plot analysis. The settings on record: 0.5 h.

In general, IC50 refers to the concentration that gives 50% inhibition. As for `C/C(=N\NC(=O)C1=C(O)c2ccccc2S(=O)(=O)N1)c1ccccc1`, the IC50 in series [1] came to 110 nM; in series [2], 3330 nM. Further, the Ratio IC50 in the series listed under Rattus norvegicus worked out at 0.03. Besides, the “inhibition (INH)” value in series [3] is “Active”.

These data come from ChEMBL document CHEMBL4138153, “Synthesis, monoamine oxidase inhibition activity and molecular docking studies of novel 4-hydroxy-N'-[benzylidene or 1-phenylethylidene]-2-H/methyl/benzyl-1,2-benzothiazine-3-carbohydrazide 1,1-dioxides” (Eur J Med Chem, 2018).
